Measured values reported in paper PMC4710095 (Journal of medicinal chemistry, 2012).

Legend:
[1] = target: T1, TcFPPS (Trypanosoma cruzi farnesyl diphosphate synthase) (Trypanosoma cruzi, UniProt Q8WS26); experiment: Isothermal titration calorimetry of bisphosphonate binding to TcFPPS; details: ITC, 28 °C; for ΔG / ΔH / ΔS: single binding site per monomer
T1 sequence (Q8WS26 64-425): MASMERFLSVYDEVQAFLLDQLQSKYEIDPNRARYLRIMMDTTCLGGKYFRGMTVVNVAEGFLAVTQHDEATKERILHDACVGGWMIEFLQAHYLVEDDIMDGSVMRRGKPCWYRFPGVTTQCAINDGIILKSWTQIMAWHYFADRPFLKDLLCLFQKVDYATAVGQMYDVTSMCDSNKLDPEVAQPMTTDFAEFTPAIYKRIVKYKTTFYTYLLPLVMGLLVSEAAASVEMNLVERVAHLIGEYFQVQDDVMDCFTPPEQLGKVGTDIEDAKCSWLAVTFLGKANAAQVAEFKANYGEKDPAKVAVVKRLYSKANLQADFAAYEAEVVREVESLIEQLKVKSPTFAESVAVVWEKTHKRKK

[2] = tested on: TcFPPS; details: TcFPPS enzymatic activity; IC50 were calculated before; cited from earlier work
[3] = tested on: T. cruzi; details: in vivo assays; cited from earlier work

Compound | ΔG [1] [kcal/mol] | ΔH [1] [kcal/mol] | ΔS [1] [cal/mol/K] | IC50 [2] [nM] | unfavorable binding enthalpy, excess over the other inhibitors ([1]; compared with the other n-alkyl inhibitors) [kcal/mol] | ΔH, 2-site model, first value ([1]; values calculated using 2-site model (two different sites per dimer), first site) [kcal/mol] | ΔH, 2-site model, second value ([1]; values calculated using 2-site model (two different sites per dimer), second site) [kcal/mol] | survival of T. cruzi-infected mice [3]
CCCNCC(P(=O)(O)O)P(=O)(O)O [Compound 10, [2-(n-propylamino)ethane-1,1-diyl]bisphosphonic acid] | -10.43 | 6.35 ± 0.07 | 56.1 | 38 | – | – | – | –
CCCCCNCC(P(=O)(O)O)P(=O)(O)O [Compound 11, [2-(n-pentylamino)ethane-1,1-diyl]bisphosphonic acid] | -8.15 | 5.22 ± 0.11 | 44.7 | 1840 | – | – | – | –
CCCCCCNCC(P(=O)(O)O)P(=O)(O)O [Compound 12, [2-(n-hexylamino)ethane-1,1-diyl]bisphosphonic acid] | -8.72 | 7.87 ± 0.11 | 55.4 | 490 | 1.5 to 2.0 | – | – | –
CCCCCCCNCC(P(=O)(O)O)P(=O)(O)O [Compound 13, [2-(n-heptylamino)ethane-1,1-diyl]bisphosphonic acid] | -9.88 | 5.65 ± 0.09 | 51.9 | 58 | – | 6.39 ± 0.36 | 4.62 ± 0.44 | –
O=P(O)(O)C(CNC1CCCCC1)P(=O)(O)O [Compound 14, [2-(cyclohexylamino)ethane-1,1-diyl]bisphosphonic acid] | – | – | – | 13 | – | – | – | –
O=P(O)(O)C(O)(Cc1cccnc1)P(=O)(O)O [risedronate] | – | – | – | – | – | – | – | significantly increase survival
